Here are results for six compounds from patent US6300353A, “Azoles for treatment of fungal infections” (Basilea Pharmaceutica AG, a Swiss Company, priority 1998, dated 2001).

Read-outs that look alike come from different tables or passages of the source.

One series can be described thus: physchem. As to conditions: water.
In series [1] the test system is Aspergillus fumigatus. In words: In vivo efficacy, pulmonary aspergillosis model. The note with it: in Rattus norvegicus, 336 h.
For another series, the system named is Candida albicans. As to the kind of experiment: In vivo efficacy, systemic candidiasis model. As to conditions: in Rattus norvegicus, 336 h.
The nature of series [2]: Conversion of compounds of formula (I') to compounds of formula (II) in human plasma. As to conditions: 37° C.; for remaining at 5 min / metabolised at 5 min: incubation time 5 min; for remaining at 5 min: read-out: Observed (%) Comp. (I'); for metabolised at 5 min: read-out: Observed (%) Compound (II). It is filed as in vitro ADME. As for the experimental part:
In addition, the azole of formula I' are chemically stable in aqueous solution at room temperature more than three days, but are efficiently converted into compounds of formula (II) in either mouse, rat, monkey or human plasma. The conversion of representatives of the new azole compounds of the general formula (I') to compounds of formula (II) in human plasma are shown in Table 4. The compounds of formula (I') were incubated with human plasma at a concentration of 10.quadrature.g/ml at 37° C. for up to 20 min.

For series [3], the system named is Aspergillus fumigatus. In words: In vivo efficacy, systemic aspergillosis model. As to conditions: in Rattus norvegicus, 336 h.
The target in the next series is CYP2C9 (Homo sapiens, UniProt P11712). In words: In vitro P450 inhibitory activity (CYP2C9, tolbutamide 4-hydroxylation), human liver microsomes. In general terms: Microsomes from liver hold many membrane-bound enzymes, among them those of drug oxidation.
Another series concerns the target CYP3A4 (Homo sapiens, UniProt P08684). In words: In vitro P450 inhibitory activity (CYP3A4, midazolam 1-hydroxylation), human liver microsomes. As to conditions: midazolam 10 μM, 10 min, read-out: P450 inhibition IC50, CYP 3A4. It is filed as in vitro ADME.
[4] abbreviates: iv, read-out: Effective dose 50% (ED50), pulmonary aspergillosis, i.v.
[5] abbreviates: po, read-out: Effective dose 50% (ED50), systemic candidiasis, p.o.
Where [6] appears, read: iv, read-out: Effective dose 50% (ED50), systemic aspergillosis, i.v.

Sequence of CYP2C9 (P11712 whole entry): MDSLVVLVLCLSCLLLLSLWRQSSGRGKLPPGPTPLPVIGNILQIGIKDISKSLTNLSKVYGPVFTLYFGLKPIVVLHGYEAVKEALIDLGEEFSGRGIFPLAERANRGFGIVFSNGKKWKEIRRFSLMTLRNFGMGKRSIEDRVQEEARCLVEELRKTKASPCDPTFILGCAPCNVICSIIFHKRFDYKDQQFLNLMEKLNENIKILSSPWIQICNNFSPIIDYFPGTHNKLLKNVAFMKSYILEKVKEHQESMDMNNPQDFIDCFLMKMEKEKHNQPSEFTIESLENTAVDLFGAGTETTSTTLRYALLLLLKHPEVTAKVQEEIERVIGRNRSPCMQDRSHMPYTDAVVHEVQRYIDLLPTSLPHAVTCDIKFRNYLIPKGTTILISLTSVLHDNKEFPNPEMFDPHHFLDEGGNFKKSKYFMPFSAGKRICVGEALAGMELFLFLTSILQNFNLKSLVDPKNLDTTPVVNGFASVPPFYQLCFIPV
Sequence of CYP3A4 (P08684 whole entry): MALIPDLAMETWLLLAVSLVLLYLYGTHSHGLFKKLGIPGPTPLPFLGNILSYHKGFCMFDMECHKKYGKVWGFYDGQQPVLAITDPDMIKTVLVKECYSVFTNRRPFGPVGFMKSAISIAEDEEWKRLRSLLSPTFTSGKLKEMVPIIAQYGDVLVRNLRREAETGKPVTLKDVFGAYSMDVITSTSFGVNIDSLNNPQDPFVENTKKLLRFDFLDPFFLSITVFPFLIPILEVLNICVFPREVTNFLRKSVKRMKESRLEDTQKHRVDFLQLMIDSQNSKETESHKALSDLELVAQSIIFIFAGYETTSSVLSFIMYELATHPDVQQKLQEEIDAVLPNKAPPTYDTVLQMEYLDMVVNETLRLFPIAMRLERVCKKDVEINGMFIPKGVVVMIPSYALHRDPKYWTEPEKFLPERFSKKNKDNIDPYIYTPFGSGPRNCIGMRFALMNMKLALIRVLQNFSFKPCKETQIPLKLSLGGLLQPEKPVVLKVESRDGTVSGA
Description for CYP2C9: Each azole compound at different concentrations was incubated with a specific substrate for each CYP, human liver microsomes and NADPH at 37° C. […] The substrate concentrations and incubation conditions were as follows:

A word on the solubility: it is how much of the substance goes into solution per volume. High values mean much dissolved substance, low ones little dissolved substance. Usually ED50 stands for the dose that gives a 50% effect, or the effect in half of the subjects. A word on the half-life: it is the time needed for the level to fall by half in the phase considered. Low values mean rapid decline, high ones slow decline. Consider `CNCC(=O)Oc1c(C)cc(C[n+]2cnn(C[C@](O)(c3cc(F)ccc3F)[C@@H](C)c3nc(-c4ccc(C#N)cc4)cs3)c2)cc1C.[Br-]` [Example 1, 1-{(2R,3R)-3-[4-(4-cyano-phenyl)-thiazol-2-yl]-2-(2,5-difluoro-phenyl)-2-hydroxy-butyl}-4-(3,5-dimethyl-4-methylaminoacetoxy-benzyl)-1H-[1,2,4]triazol-4-ium bromide], for which, in the series “physchem”, the solubility came out at 22 mg/mL. Besides, the ED50 in the series on Aspergillus fumigatus [1] (setting [4]) amounted to 8 ± 4.2 µmol/kg; in the series with Aspergillus fumigatus [1] (po, read-out: Effective dose 50% (ED50), pulmonary aspergillosis, p.o.), 7.4 ± 3.8 µmol/kg; in the series on Candida albicans (iv, read-out: Effective dose 50% (ED50), systemic candidiasis, iv.), 5.3 µmol/kg; in the series on Candida albicans (setting [5]), 5.3 µmol/kg; with Aspergillus fumigatus [3] (setting [6]), 3 µmol/kg; in the series on Aspergillus fumigatus [3] (po, read-out: Effective dose 50% (ED50), systemic aspergillosis, p.o.), 5.8 µmol/kg. Also, the half-life in series [2] is less than 1 min. The remaining at 5 min in series [2] is less than 5%. The metabolised at 5 min in series [2] came to 96%.

Turning to `CNCC(=O)Oc1c(C)cc(C[n+]2cnn(C[C@](O)(c3cc(F)c(F)cc3F)[C@@H](C)c3nc(-c4ccc(C#N)cc4)cs3)c2)cc1C.Cl.[Br-]` [Example 3, 1-[(2R,3R)-3-[4-(4-cyanophenyl)thiazol-2-yl]-2-hydroxy-2-(2,4,5-trifluorophenyl)butyl]-4-(3,5-dimethyl-4-methylaminoacetoxybenzyl)-1H-[1,2,4]triazol-4-ium bromide hydrochloride], in “physchem”, the solubility is more than 7 mg/mL. In series [2], the half-life was less than 1 min, the remaining at 5 min is less than 5% and the metabolised at 5 min turned out to be 89%.

A word on the IC50: it is the concentration that gives 50% inhibition. Regarding `C[C@@H](c1nc(-c2ccc(C#N)cc2)cs1)[C@](O)(Cn1cncn1)c1cc(F)ccc1F` [Example 4], at CYP2C9, the half-inhibitory concentration (IC50) is 35.1 µM.

As to `C[C@@H](c1nc(-c2ccc(C#N)cc2)cs1)[C@](O)(Cn1cncn1)c1cc(F)c(F)cc1F` [Example 5], the IC50 on CYP3A4 was found to be 23 µM; against CYP2C9, 18.4 µM.

Take `OC(Cn1cncn1)(Cn1cncn1)c1ccc(F)cc1F` [Fluconazole, reference compound]: the 50% effective dose (ED50) with Candida albicans (setting [5]) came out at 1.4 µmol/kg.

With `CCC(C)n1ncn(-c2ccc(N3CCN(c4ccc(OCC5COC(Cn6cncn6)(c6ccc(Cl)cc6Cl)O5)cc4)CC3)cc2)c1=O` (stereo not shown) [Itraconazole, reference compound], on CYP2C9, the IC50 turned out to be 25.7 µM. For the same compound, the ED50 stood at 2 ± 1.1 µmol/kg with Aspergillus fumigatus [1] (setting [4]), 3.9 ± 2.2 µmol/kg in the series with Candida albicans (setting [5]) and 4 µmol/kg in the series on Aspergillus fumigatus [3] (setting [6]).
